The values that follow come from article PMC8709388, “In Search of Small Molecules That Selectively Inhibit MBOAT4” (Molecules, 2021).

This experiment has as its target T1, mouse GOAT (Mus musculus, UniProt P0C7A3).
T1 construct: made in house; host or cells: sf9 insect cells (baculovirus, pFastBac1-mouseGOAT); total membrane fraction, not purified
T1 sequence (P0C7A3 1-435): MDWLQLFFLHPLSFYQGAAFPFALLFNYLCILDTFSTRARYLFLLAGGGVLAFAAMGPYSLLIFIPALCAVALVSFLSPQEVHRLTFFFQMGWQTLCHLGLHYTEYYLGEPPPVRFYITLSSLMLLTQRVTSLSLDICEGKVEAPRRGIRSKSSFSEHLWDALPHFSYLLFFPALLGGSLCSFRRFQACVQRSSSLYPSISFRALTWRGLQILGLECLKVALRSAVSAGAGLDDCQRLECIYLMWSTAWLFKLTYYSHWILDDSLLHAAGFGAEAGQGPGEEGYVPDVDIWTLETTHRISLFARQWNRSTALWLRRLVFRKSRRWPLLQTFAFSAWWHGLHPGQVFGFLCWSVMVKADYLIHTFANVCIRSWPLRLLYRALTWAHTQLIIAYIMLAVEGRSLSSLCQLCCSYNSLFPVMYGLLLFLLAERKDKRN
Nature of the experiment: Acyltransferase assay: inhibition of proghrelin octanoylation by GOAT in sf9 membrane fractions. The experiment is classed as biochemical. Particulars: for IC50: sf9 membranes containing mouse GOAT, [3H]octanoyl CoA, proghrelin8His, read-out: IC50 (GOAT, membrane fraction, in-house); for GOAT inhibition in vitro (in words): membrane fractions. As for the experimental part: pFastBac1-mouseGOAT and pGEX-GST-proGhrelin8His plasmid encoding for mouse proghrelin, fused to GST with TEV cleavage site to release proghrelin moiety, was a kind gift from the Brown and Goldstein laboratory. The BL21Gold E. coli chemically competent cells were transformed with the pGEX-GST-proGhrelin8His plasmid and selected on agar plates with ampicillin. A few colonies were used to inoculate 50 mL LB, and cultures were grown overnight at 37 °C. The next morning, 10 mL of overnight culture was used to inoculate 1L LB. A total of 4 flasks with 1L LB each were inoculated with 10 mL of the overnight culture, and bacterial cultures were grown at 37 °C until they reached OD600 ~ 0.6. The cultures were chilled on ice for 30 min and then 0.25 mM of IPTG was added to each culture. The cultures were then moved back to a shaker set to 18 °C and incubated overnight. Cells were harvested and resuspended in 200 mL buffer containing 25 mM Tris-HCl pH 8.0, 150 mM NaCl, 1 mM EDTA and 0.5 mg/mL lysozyme. The cell suspension was sonicated, and cell debris was removed by centrifugation. The soluble fraction was passed through glutathione resin by gravity. The resin was washed with 75 mL of lysis buffer without lysozyme. The GST-proGhrelin8His protein was eluted with lysis buffer without lysozyme, supplemented with 15 mM reduced glutathione, GSH. About 50 mg of target protein, as evaluated by SDS-PAGE, was eluted. The eluate was supplemented with 1 mM DTT and about 7.5 mg of recombinant GST-TEV protease (see below) was added. The solution was incubated at 16 °C overnight to allow complete release of proghrelin8His from GST. Prior to Ni-NTA chromatography, 5 mM CaCl2 was added, and the solution was spun down at 4000× g for 10 min. After elution from Ni-NTA resin, protein solution was dialyzed against buffer containing 10 mM Tris-HCl pH 8.5, 50 mM NaCl, 10% glycerol and 0.01% CHAPS using 3 kDa cutoff membrane with 3 buffer exchanges. The protein was quantified by absorbance at A280 and qualified by SDS-PAGE.
The baculovirus expression of mouse GOAT. DH10Bac E. coli strain (ThermoFisher, Waltham, MA, USA) was transformed with pFastBac1-mouseGOAT plasmid, and Bacmid DNA from 12 white colonies was analyzed by DNA sequencing and PCR reaction. All clones were transfected to sf9 cells and level of mGOAT expression was compared between clones from cells producing P2. The clone with the highest mGOAT expression level was used to produce P3. For membrane isolation, sf9 cells were seeded at 2–4 × 10^6 /mL in total 1 L volume of sf-900 serum-free medium (ThermoFisher) and infected with P3 virus. At day 2 post-infection, cells were harvested and resuspended in 40 mL of buffer containing 50 mM NaPi pH 7.2, 150 mM NaCl, 1 mM EDTA, 100 μM bis (4-nitrophenyl) phosphate, 2.5 μg/mL aprotinin, 10 μg/mL leupeptin, 10 μg/mL pepstatin A. Cell suspension was briefly sonicated and cell debris was removed by centrifugation at 3000× g for 10 min. Membrane fraction was collected from supernatant by centrifugation at 100,000× g for 1 h. Membrane pellet was resuspended in storage buffer (50 mM NaPi pH 7.2, 150 mM NaCl and 10% glycerol) and kept at −80 °C. Acyltransferase assay: The assay conditions included per 50 μL reaction: 50 μg of total sf9 membranes, various (for modality experiment) or fixed (for IC50) concentrations of recombinant proghrelin8His peptide and various concentrations of tested compound (for IC50), 100 μM palmitoyl CoA, 50 mM HEPES pH 7.0 and 1 μM [^3H] octanoyl CoA (~5.5 dpm/fmol—American Radioactive Chemicals). After incubation of the reaction mixture at 37C for 10 min, tubes were placed on ice and 10 μL of 1M HCl was added to each tube. Following the addition of 740 μL of cold quench buffer (50 mM NaPi pH 7.4, 10 mM Imidazole, 150 mM NaCl, 100 μM bis (4-nitrophenyl) phosphate, 1 mM phenylmethylsulfonyl fluoride and 0.1% Triton), 0.2 mL of 50% Ni-NTA slurry was added to each reaction. […]

As usually defined, the IC50 is the concentration that inhibits the measured activity by half. Consider `CNC(=O)c1cccc(Cc2c(C)nc3nonc3c2N)n1` [compound 6, reference compound], for which the IC50 turned out to be 64 nM.
Regarding `CCCCOCC(=O)N1CCC(CCc2c(C)nc3nonc3c2N)CC1` [compound 10, 1-(4-(2-(7-amino-5-methyl-[1,2,5]oxadiazolo[3,4-b]pyridin-6-yl)ethyl)piperidin-1-yl)-2-butoxyethan-1-one], the “GOAT inhibition in vitro (in words)” value was “as potently as did 5 and 6”; the concentration for half-maximal inhibition (IC50) is 63 nM.
As for `Cc1nc2nonc2c(N)c1CCC1CCN(C(=O)[C@H](C)NC(=O)c2ccnn2C)CC1` [compound 11, (S)-N-(1-(4-(2-(7-amino-5-methyl-[1,2,5]oxadiazolo[3,4-b]pyridin-6-yl)ethyl)pip-eridin-1-yl)-1-oxopropan-2-yl)-1-methyl-1H-pyrazole-5-carboxamide], the “GOAT inhibition in vitro (in words)” value was “as potently as did 5 and 6”; the IC50 worked out at 84 nM.
Regarding `Cc1nc(Cl)nc(N)c1CCC1CCN(C(=O)[C@H](C)NC(=O)c2ccnn2C)CC1` [compound 5], the IC50 amounted to 88 nM.
